Source: ChEMBL document CHEMBL2417479, “Effects of the methoxy group in the side chain of debromoaplysiatoxin on its tumor-promoting and anti-proliferative activities” (Bioorg Med Chem Lett, 2013)

Legend:
[1] = test system: DU-145; experiment: Growth inhibition of human DU145 cells after 48 hrs by SRB assay; type: functional; conditions: DU-145, 48 h
[2] = test system: PC-3; experiment: Growth inhibition of human PC3 cells after 48 hrs by SRB assay; type: functional; conditions: PC-3, 48 h
[3] = test system: MKN-74; experiment: Growth inhibition of human MKN74 cells after 48 hrs by SRB assay; type: functional; conditions: MKN-74, 48 h
[4] = test system: MKN-45; experiment: Growth inhibition of human MKN45 cells after 48 hrs by SRB assay; type: functional; conditions: MKN-45, 48 h
[5] = test system: MKN-28; experiment: Growth inhibition of human MKN28 cells after 48 hrs by SRB assay; type: functional; conditions: MKN-28, 48 h
[6] = test system: MKN-7; experiment: Growth inhibition of human MKN7 cells after 48 hrs by SRB assay; type: functional; conditions: MKN-7, 48 h
[7] = Growth inhibition of human MKN1 cells after 48 hrs by SRB assay; type: functional; conditions: MKN-1, 48 h
[8] = test system: St-4; experiment: Growth inhibition of human St-4 cells after 48 hrs by SRB assay; type: functional; conditions: St-4, 48 h
[9] = test system: ACHN; experiment: Growth inhibition of human ACHN cells after 48 hrs by SRB assay; type: functional
[10] = Growth inhibition of human RXF631L cells after 48 hrs by SRB assay; type: functional; conditions: RXF 631, 48 h
[11] = test system: SK-OV-3; experiment: Growth inhibition of human SKOV3 cells after 48 hrs by SRB assay; type: functional; conditions: SK-OV-3, 48 h
[12] = test system: OVCAR-8; experiment: Growth inhibition of human OVCAR8 cells after 48 hrs by SRB assay; type: functional; conditions: OVCAR-8, 48 h
[13] = test system: OVCAR-4; experiment: Growth inhibition of human OVCAR4 cells after 48 hrs by SRB assay; type: functional; conditions: OVCAR-4, 48 h
[14] = test system: OVCAR-5; experiment: Growth inhibition of human OVCAR5 cells after 48 hrs by SRB assay; type: functional; conditions: OVCAR-5, 48 h
[15] = test system: OVCAR-3; experiment: Growth inhibition of human OVCAR3 cells after 48 hrs by SRB assay; type: functional; conditions: OVCAR-3, 48 h
[16] = test system: DMS-114; experiment: Growth inhibition of human DMS114 cells after 48 hrs by SRB assay; type: functional; conditions: DMS-114, 48 h
[17] = test system: LOX IMVI; experiment: Growth inhibition of human LOXIMVI cells after 48 hrs by SRB assay; type: functional
[18] = test system: DMS-273; experiment: Growth inhibition of human DMS273 cells after 48 hrs by SRB assay; type: functional; conditions: DMS-273, 48 h
[19] = test system: A549; experiment: Growth inhibition of human A549 cells after 48 hrs by SRB assay; type: functional; conditions: A549, 48 h
[20] = test system: NCI-H522; experiment: Growth inhibition of human NCI-H522 cells after 48 hrs by SRB assay; type: functional; conditions: NCI-H522, 48 h
[21] = test system: NCI-H460; experiment: Growth inhibition of human NCI-H460 cells after 48 hrs by SRB assay; type: functional; conditions: NCI-H460, 48 h
[22] = test system: NCI-H226; experiment: Growth inhibition of human NCI-H226 cells after 48 hrs by SRB assay; type: functional; conditions: NCI-H226, 48 h
[23] = test system: HCT-116; experiment: Growth inhibition of human HCT116 cells after 48 hrs by SRB assay; type: functional; conditions: HCT-116, 48 h
[24] = test system: NCI-H23; experiment: Growth inhibition of human NCI-H23 cells after 48 hrs by SRB assay; type: functional; conditions: NCI-H23, 48 h
[25] = test system: HCT-15; experiment: Growth inhibition of human HCT15 cells after 48 hrs by SRB assay; type: functional; conditions: HCT-15, 48 h
[26] = test system: KM12; experiment: Growth inhibition of human KM12 cells after 48 hrs by SRB assay; type: functional; conditions: KM12, 48 h
[27] = test system: HT-29; experiment: Growth inhibition of human HT-29 cells after 48 hrs by SRB assay; type: functional; conditions: HT-29, 48 h
[28] = Growth inhibition of human HCC2998 cells after 48 hrs by SRB assay; type: functional; conditions: HCC 2998, 48 h
[29] = test system: SNB-78; experiment: Growth inhibition of human SNB-78 cells after 48 hrs by SRB assay; type: functional; conditions: SNB-78, 48 h
[30] = test system: SNB-75; experiment: Growth inhibition of human SNB75 cells after 48 hrs by SRB assay; type: functional; conditions: SNB-75, 48 h
[31] = test system: SF-539; experiment: Growth inhibition of human SF539 cells after 48 hrs by SRB assay; type: functional; conditions: SF-539, 48 h
[32] = test system: SF-295; experiment: Growth inhibition of human SF295 cells after 48 hrs by SRB assay; type: functional; conditions: SF-295, 48 h
[33] = test system: SF-268; experiment: Growth inhibition of human SF268 cells after 48 hrs by SRB assay; type: functional; conditions: SF-268, 48 h
[34] = test system: U-251; experiment: Growth inhibition of human U251 cells after 48 hrs by SRB assay; type: functional; conditions: U-251, 48 h
[35] = test system: MCF7; experiment: Growth inhibition of human MCF7 cells after 48 hrs by SRB assay; type: functional; conditions: MCF7, 48 h
[36] = test system: MDA-MB-231; experiment: Growth inhibition of human MDA-MB-231 cells after 48 hrs by SRB assay; type: functional; conditions: MDA-MB-231, 48 h
[37] = Growth inhibition of human HBC5 cells after 48 hrs by SRB assay; type: functional; conditions: HBC5, 48 h
[38] = Growth inhibition of human BSY1 cells after 48 hrs by SRB assay; type: functional; conditions: BSY-1, 48 h
[39] = Growth inhibition of human HBC4 cells after 48 hrs by SRB assay; type: functional; conditions: HBC4, 48 h
[40] = test system: Mus musculus; experiment: In vivo tumor-promoting activity in DMBA-treated ICR mouse assessed as tumor bearing mouse at 3.4 nmol administered twice per week measured after 20 weeks by two-stage carcinogenesis assay relative to control; type: ADME, organism-based; conditions: 3360 h
[41] = Cytotoxicity against human Raji cells assessed as cell viability at 10^-7 M relative to control; type: cell-based; conditions: read-out: Activity
[42] = Cytotoxicity against human Raji cells assessed as cell viability at 10^-6 M relative to control; type: cell-based; conditions: read-out: Activity
[43] = Cytotoxicity against human Raji cells assessed as cell viability at 10^-8 M relative to control; type: cell-based; conditions: read-out: Activity
[44] = test system: Raji; experiment: Tumor-promoting activity against human Raji cells expressing EBV-EA at 10^-6 M after 48 hrs by indirect immunofluorescence assay relative to control; type: ADME, cell-based; conditions: 1 µM
[45] = test system: Raji; experiment: Tumor-promoting activity against human Raji cells expressing EBV-EA at 10^-8 M after 48 hrs by indirect immunofluorescence assay relative to control; type: ADME, cell-based; conditions: 0.01 µM
[46] = test system: Raji; experiment: Tumor-promoting activity against human Raji cells expressing EBV-EA at 10^-7 M after 48 hrs by indirect immunofluorescence assay relative to control; type: ADME, cell-based; conditions: 0.1 µM

## CC1=C2CC(=O)O[C@@H]([C@@H](C)O)CC(=O)O[C@H]3C[C@@](O2)(O[C@H]([C@@H](C)CCCc2cccc(O)c2)[C@H]3C)C(C)(C)C1
[1]
  GI50: 7.94 µM
[2]
  GI50: 3.72 µM
[3]
  GI50: 6.17 µM
[4]
  GI50: 1.82 µM
[5]
  GI50: 4.68 µM
[6]
  GI50: 4.07 µM
[7]
  GI50: 8.13 µM
[8]
  GI50: 0.741 µM
[9]
  GI50: 5.5 µM
[10]
  GI50: 11 µM
[11]
  GI50: 15.5 µM
[12]
  GI50: 12.6 µM
[13]
  GI50: 6.61 µM
[14]
  GI50: 4.17 µM
[15]
  GI50: 8.51 µM
[16]
  GI50: 4.47 µM
[17]
  GI50: 0.832 µM
[18]
  GI50: 4.37 µM
[19]
  GI50: 2.09 µM
[20]
  GI50: 5.5 µM
[21]
  GI50: 0.871 µM
[22]
  GI50: 10.7 µM
[23]
  GI50: 5.62 µM
[24]
  GI50: 7.94 µM
[25]
  GI50: 6.76 µM
[26]
  GI50: 4.17 µM
[27]
  GI50: 4.47 µM
[28]
  GI50: 1.86 µM
[29]
  GI50: 15.5 µM
[30]
  GI50: 9.77 µM
[31]
  GI50: 11.2 µM
[32]
  GI50: 3.24 µM
[33]
  GI50: 10.2 µM
[34]
  GI50: 4.57 µM
[35]
  GI50: 4.37 µM
[36]
  GI50: 1.07 µM
[37]
  GI50: 11.7 µM
[38]
  GI50: 4.07 µM
[39]
  GI50: 0.55 µM
[40]
  Activity: Not Active
[41]
  viability at 0.1 µM: 60%
[42]
  viability at 1 µM: 60%
[43]
  viability at 0.01 µM: 60%
[44]
  Activity: 16.2%
[45]
  Activity: 11%
[46]
  Activity: 14.1%
